Calls of active or inactive are those of the source. No cut-off for these calls is given here.
Experiments:
[1] = Competitive inhibition of Cytophaga hutchinsonii KMO using 5-Br-kynurenine as substrate assessed as decrease in NADPH consumption by UV/Vis spectrophotometer
Cytophaga hutchinsonii [2] = assay: Ratio of Kcat to Km for Cytophaga hutchinsonii KMO
Cytophaga hutchinsonii [3] = assay: Activity at Cytophaga hutchinsonii KMO assessed as NADPH consumption by UV/Vis spectrophotometer
Cytophaga hutchinsonii [4] = assay: Activity at Cytophaga hutchinsonii KMO at 0.2 mM after 30 mins by HPLC method
Cytophaga hutchinsonii [5] = assay: Activity at Cytophaga hutchinsonii KMO by ESI-LC/MS method

Row | Ki [1] [µM] | kcat/Km (Cytophaga hutchinsonii [2]) | Km (Cytophaga hutchinsonii [3]) [µM] | kcat (Cytophaga hutchinsonii [3]) [s⁻¹] | Compound | other results
1 | 13.8 |  |  |  | Nc1c(Cl)cccc1C(=O)CC(N)C(=O)O (stereo not drawn) | 
2 | 34 |  |  |  | O=C(O)CNC(=O)c1ccc(Cl)c(Cl)c1 | 
3 |  | 4 ×10⁵ /M/s | 2 | 0.8 | Nc1ccc(Cl)cc1C(=O)C[C@H](N)C(=O)O | 
4 |  | 1.3 ×10⁵ /M/s | 4.5 | 0.6 | Nc1ccc(Br)cc1C(=O)C[C@H](N)C(=O)O | Activity (Cytophaga hutchinsonii [4]): Active; Activity (Cytophaga hutchinsonii [5]): Active
5 | 8.6 |  |  |  | Cc1cccc(C(=O)CC(N)C(=O)O)c1N (stereo not drawn) | 
6 | 10.2 |  |  |  | Cc1cc(Br)cc(C(=O)CC(N)C(=O)O)c1N (stereo not drawn) | 
7 | 1000 |  |  |  | COc1ccc(C(=O)NCC(=O)O)cc1OC | 
8 |  | 5.3 ×10⁴ /M/s | 67 | 2 | Nc1ccccc1C(=O)C[C@H](N)C(=O)O | 

Row | Compound | Ki [1] [µM] | kcat/Km (Cytophaga hutchinsonii [2]) | Km (Cytophaga hutchinsonii [3]) [µM] | kcat (Cytophaga hutchinsonii [3]) [s⁻¹] | other results
9 | Nc1c(Cl)cc(Br)cc1C(=O)CC(N)C(=O)O (stereo not drawn) | 11 |  |  |  | 
10 | Nc1c(Br)cc(Br)cc1C(=O)C[C@H](N)C(=O)O | 1.5 |  |  |  | 

From ChEMBL document CHEMBL4007495, “Substrate and inhibitor specificity of kynurenine monooxygenase from Cytophaga hutchinsonii” (Bioorg Med Chem Lett, 2017)
